This passage reports IC50 results from patent US20240228510A1, “KRAS G12C INHIBITORS” (Mirati Therapeutics, Inc., priority 2021, published 2024).

The subject of this assay is KRas G12C. Briefly: Inhibition of KRas G12C-mediated pERK in H358 cells (Phospho-ERK In-Cell Western). It is filed as cell-based. The settings on record: Homo sapiens; NCI-H358 cells; 3 hours compound; pERK(Thr202/Tyr204) normalized to GAPDH; 4 parameter fit. The procedure: The cellular inhibition of KRAs G12C by exemplary compounds of the present invention was determined by measuring the amount of a downstream marker of KRas activity, phosphorylated ERK (“Phospho-ERK”).
NCI-H358 cells (ATCC CRL-5807) express KRas G12C and were grown in RPMI medium supplemented with 10% fetal bovine serum, penicillin/streptomycin and 10 mM HEPES. Cells were plated in poly-D-Lysine coated 96-well plates at a concentration of 50,000 cells/well and allowed to attach for 8-12 hours. Diluted compounds were then added at a final concentration of 0.5% DMSO. After 3 hours, the medium was removed, 150 μL of 4% formaldehyde was added and the plates were incubated for 20 minutes. The plates were washed with PBS, and permeabilized using 150 μL of ice cold 100% methanol for 10 minutes. Non-specific antibody binding to the plates was blocked using 100 μL Licor Blocking Buffer (Li-Cor Biotechnology, Lincoln NE) for 1 hour at room temperature. Positive control samples and samples lacking cells were parallel processed with test samples as standards.
The amount Phospho-ERK was determined using an antibody specific for the phosphorylated form of ERK and compared to the amount of GAPDH. Primary antibodies used for detection were added as follows: Phospho-ERK (Cell Signaling cs9101) diluted 1:500 and GAPDH (Millipore MAB374) diluted 1:5000 in Licor block+0.05% Tween 20. The plates were incubated for 2 hours at room temperature. The plates were washed with PBS+0.05% Tween 20.
Secondary antibodies used to visualize primary antibodies were added as follows: Anti-rabbit-680 diluted 1:1000 and Anti-mouse-800 diluted 1:1000 in Licor Block+0.05% Tween 20 and incubated for 1 hour at room temperature. The plates were washed with PBS+0.05% Tween 20. A 100 μL aliquot of PBS was added to each well and the plates were read on a LICOR AERIUS plate reader.
The pERK(Thr202/Tyr204) signal was normalized with the GAPDH signal and percent of DMSO control values were calculated. IC50 values were generated using a 4 parameter fit of the dose response curve.

The term IC50 denotes the point on the concentration scale where inhibition reaches its midpoint. Regarding `C#Cc1cccc2cccc(-c3ncc4c(N5C[C@@H]6[C@H]5CCN6C(=O)C=C)snc4c3F)c12` [Example 19, 1-((1R,5R)-6-(6-(8-ethynylnaphthalen-1-yl)-7-fluoroisothiazolo[4,3-c]pyridin-3-yl)-2,6-diazabicyclo[3.2.0]heptan-2-yl)prop-2-en-1-one], inhibition was half-maximal at 748 nM (IC50).

On to `C=CC(=O)N1CC2(CCN(c3snc4c(F)c(-c5cccc6ccc(F)c(Cl)c56)ncc34)CC2)C1` [Example 22, 1-(7-(6-(8-chloro-7-fluoronaphthalen-1-yl)-7-fluoroisothiazolo[4,3-c]pyridin-3-yl)-2,7-diazaspiro[3.5]nonan-2-yl)prop-2-en-1-one], for which the IC50 is 8000 nM.

The molecule `C#Cc1cccc2cccc(-c3ncc4c(N5C[C@@H]6[C@H]5CCN6C(=O)C=C)c(Cl)cnc4c3F)c12` [Example 3, 1-((1R,5R)-6-(3-chloro-7-(8-ethynylnaphthalen-1-yl)-8-fluoro-1,6-naphthyridin-4-yl)-2,6-diazabicyclo[3.2.0]heptan-2-yl)prop-2-en-1-one] had an IC50 of 75 nM.

Turning to `C=CC(=O)N1CCN(c2c(F)cnc3c(F)c(-c4cccc5ccc(F)c(Cl)c45)ncc23)CC1` [Example 2, 1-(4-(7-(8-chloro-7-fluoronaphthalen-1-yl)-3,8-difluoro-1,6-naphthyridin-4-yl)piperazin-1-yl)prop-2-en-1-one], the IC50 was 3050 nM.

`C=CC(=O)N(C)C1CN(c2snc3c(F)c(-c4cccc5ccc(F)c(Cl)c45)ncc23)C1` [Example 21, N-(1-(6-(8-chloro-7-fluoronaphthalen-1-yl)-7-fluoroisothiazolo[4,3-c]pyridin-3-yl)azetidin-3-yl)-N-methylacrylamide] yielded an IC50 of 9000 nM.

`C#Cc1c(F)ccc2cccc(-c3ncc4c(N5C[C@@H]6[C@H]5CCN6C(=O)C=C)c(C#N)cnc4c3F)c12` [Example 12, 4-((1R,5R)-2-acryloyl-2,6-diazabicyclo[3.2.0]heptan-6-yl)-7-(8-ethynyl-7-fluoronaphthalen-1-yl)-8-fluoro-1,6-naphthyridine-3-carbonitrile] showed an IC50 of 24 nM. This IC50 lies about 380-fold lower than the previous one.

In turn, `C#Cc1c(F)ccc2cccc(-c3ncc4c(N5[C@@H]6CCN(C(=O)C=C)[C@@H]6[C@@H]5C)cc(C)nc4c3F)c12` [Example 16, 1-((1R,5R,7S)-6-(7-(8-ethynyl-7-fluoronaphthalen-1-yl)-8-fluoro-2-methyl-1,6-naphthyridin-4-yl)-7-methyl-2,6-diazabicyclo[3.2.0]heptan-2-yl)prop-2-en-1-one] yielded an IC50 of 73 nM.

On to `C=CC(=O)N1CCN(c2c(C#N)cnc3c(F)c(-c4cccc5ccc(F)c(Cl)c45)ncc23)CC1` [Example 10, 4-(4-acryloylpiperazin-1-yl)-7-(8-chloro-7-fluoronaphthalen-1-yl)-8-fluoro-1,6-naphthyridine-3-carbonitrile], for which the IC50 turned out to be 3680 nM.

On to `C#Cc1c(F)ccc2cccc(-c3ncc4c(N5C[C@@H]6[C@H]5CCN6C(=O)C=C)ccnc4c3F)c12` [Example 11, 1-((1R,5R)-6-(7-(8-ethynyl-7-fluoronaphthalen-1-yl)-8-fluoro-1,6-naphthyridin-4-yl)-2,6-diazabicyclo[3.2.0]heptan-2-yl)prop-2-en-1-one], for which the IC50 was determined as 17 nM.

Turning to `C#Cc1c(F)ccc2cccc(-c3ncc4c(N5C[C@@H]6[C@H]5CCN6C(=O)C=C)cc(C)nc4c3F)c12` [Example 14, 1-((1R,5R)-6-(7-(8-ethynyl-7-fluoronaphthalen-1-yl)-8-fluoro-2-methyl-1,6-naphthyridin-4-yl)-2,6-diazabicyclo[3.2.0]heptan-2-yl)prop-2-en-1-one], the IC50 turned out to be 21 nM.

In turn, `C#Cc1c(F)ccc2cccc(-c3ncc4c(N5[C@@H]6CCN(C(=O)C=C)[C@@H]6[C@@H]5C)cc(OC)nc4c3F)c12` [Example 15, 1-((1R,5R,7S)-6-(7-(8-ethynyl-7-fluoronaphthalen-1-yl)-8-fluoro-2-methoxy-1,6-naphthyridin-4-yl)-7-methyl-2,6-diazabicyclo[3.2.0]heptan-2-yl)prop-2-en-1-one] showed an IC50 of 1440 nM.

For `C=CC(=O)N1CCN(c2c(OC)cnc3c(F)c(-c4cccc5ccc(F)c(Cl)c45)ncc23)CC1` [Example 9, 1-(4-(7-(8-chloro-7-fluoronaphthalen-1-yl)-8-fluoro-3-methoxy-1,6-naphthyridin-4-yl)piperazin-1-yl)prop-2-en-1-one], half-maximal inhibition (IC50) required 9000 nM.

Regarding `C=CC(=O)N1CC2(C1)CN(c1snc3c(F)c(-c4cccc5ccc(F)c(Cl)c45)ncc13)C2` [Example 20, 1-(6-(6-(8-chloro-7-fluoronaphthalen-1-yl)-7-fluoroisothiazolo[4,3-c]pyridin-3-yl)-2,6-diazaspiro[3.3]heptan-2-yl)prop-2-en-1-one], the IC50 was 7000 nM. The IC50 values of the last two molecules are within 1.5-fold of each other.

As for `C=CC(=O)N1CC[C@@H]2[C@H]1CN2c1c(Cl)cnc2c(F)c(-c3cccc4ccc(F)c(Cl)c34)ncc12` [Example 4, 1-((1R,5R)-6-(3-chloro-7-(8-chloro-7-fluoronaphthalen-1-yl)-8-fluoro-1,6-naphthyridin-4-yl)-2,6-diazabicyclo[3.2.0]heptan-2-yl)prop-2-en-1-one], the IC50 was determined as 169 nM. Compared with the last molecule, the IC50 is about 41-fold lower.

For the molecule `C#Cc1c(F)ccc2cccc(-c3ncc4c(N5C[C@@H]6[C@H]5CCN6C(=O)C=C)c(OC)cnc4c3F)c12` [Example 6, 1-((1R,5R)-6-(7-(8-ethynyl-7-fluoronaphthalen-1-yl)-8-fluoro-3-methoxy-1,6-naphthyridin-4-yl)-2,6-diazabicyclo[3.2.0]heptan-2-yl)prop-2-en-1-one], half-maximal inhibition (IC50) was put at 22 nM. This IC50 is about 7.7-fold lower than that of the molecule before.

Regarding `C=CC(=O)N1CC[C@@H]2[C@H]1CN2c1snc2c(F)c(-c3cccc4ccc(F)c(Cl)c34)ncc12` [Example 17, 1-((1R,5R)-6-(6-(8-chloro-7-fluoronaphthalen-1-yl)-7-fluoroisothiazolo[4,3-c]pyridin-3-yl)-2,6-diazabicyclo[3.2.0]heptan-2-yl)prop-2-en-1-one], the IC50 was determined as 6000 nM.

Molecule `C#Cc1cccc2cc(O)cc(-c3ncc4c(N5C[C@@H]6[C@H]5CCN6C(=O)C=C)snc4c3F)c12` [Example 18, 1-((1R,5R)-6-(6-(8-ethynyl-3-hydroxynaphthalen-1-yl)-7-fluoroisothiazolo[4,3-c]pyridin-3-yl)-2,6-diazabicyclo[3.2.0]heptan-2-yl)prop-2-en-1-one] displayed an IC50 of 14 nM.

Molecule `C#Cc1c(F)ccc2cccc(-c3ncc4c(N5C[C@@H]6[C@H]5CCN6C(=O)C=C)c(Cl)cnc4c3F)c12` [Example 13, 1-((1R,5R)-6-(3-chloro-7-(8-ethynyl-7-fluoronaphthalen-1-yl)-8-fluoro-1,6-naphthyridin-4-yl)-2,6-diazabicyclo[3.2.0]heptan-2-yl)prop-2-en-1-one] returned an IC50 of 31 nM.

`C=CC(=O)N1CCN(c2c(C)cnc3c(F)c(-c4cccc5ccc(F)c(Cl)c45)ncc23)CC1` [Example 5, 1-(4-(7-(8-chloro-7-fluoronaphthalen-1-yl)-8-fluoro-3-methyl-1,6-naphthyridin-4-yl)piperazin-1-yl)prop-2-en-1-one]: inhibition was half-maximal at 5000 nM (IC50).

The molecule `C=CC(=O)N1CCN(c2ccnc3c(F)c(-c4cccc5ccc(F)c(Cl)c45)ncc23)CC1` [Example 1, 1-(4-(7-(8-chloro-7-fluoronaphthalen-1-yl)-8-fluoro-1,6-naphthyridin-4-yl)piperazin-1-yl)prop-2-en-1-one] gave an IC50 of 2740 nM.

`C=CC(=O)N1CCN(c2c(Cl)cnc3c(F)c(-c4cccc5ccc(F)c(Cl)c45)ncc23)CC1` [Example 7, 1-(4-(3-chloro-7-(8-chloro-7-fluoronaphthalen-1-yl)-8-fluoro-1,6-naphthyridin-4-yl)piperazin-1-yl)prop-2-en-1-one] yielded an IC50 of 5910 nM.

As for `C#Cc1cccc2cc(O)cc(-c3ncc4c(N5C[C@@H]6[C@H]5CCN6C(=O)C=C)c(Cl)cnc4c3F)c12` [Example 8, 1-((1R,5R)-6-(3-chloro-7-(8-ethynyl-3-hydroxynaphthalen-1-yl)-8-fluoro-1,6-naphthyridin-4-yl)-2,6-diazabicyclo[3.2.0]heptan-2-yl)prop-2-en-1-one], the IC50 worked out at 1 nM.
